# Columns and labels:
# [1] = tested on: secretion of interferon-beta from THP1 cells; experiment: IFN-β secretion in THP1 cell culture (5 h); assay type: cell-based; conditions: Homo sapiens, THP-1, 5 h, 30 uM cGAMP = 100%; for activation at 30 µM: compound at 30 μM, read-out: % Effect at 30 μM relative to 2′3′-cGAMP; for activation at 3 µM: compound at 3 uM, read-out: % Effect relative to 2′3′-cGAMP (@ 3 uM)
# Summary of the method: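 IFN-β in supernatant measured by AlphaLISA after a 5 h, 37 °C incubation of THP1 cells with compound (10 concentrations, 30000 down to 1.5 nM, 0.3% DMSO) in low-serum RPMI. Values scaled between DMSO and 30 uM cGAMP controls; 4-parameter curve fit yields EC50.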
# [2] = biological target: T1, full-length WT STING (Homo sapiens, UniProt Q86WV6, H232R); experiment: 3H-cGAMP filtration binding assay (WT STING); conditions: for EC50: competition with tritiated cGAMP, WT STING membrane; for inhibition at 20 µM: at 20,000 nM compound
# T1 construct: AviTag (after gg linker) (C); HRV3C cleavage site (after gs linker) (C); HIS8 (C); made in house; host or cells: Trichoplusia ni (Hi-Five) insect cells infected with baculovirus (virus generated and amplified in Sf21 cells); used as a washed membrane preparation
# T1 sequence (Q86WV6 with tags, fused parts or gaps H232R): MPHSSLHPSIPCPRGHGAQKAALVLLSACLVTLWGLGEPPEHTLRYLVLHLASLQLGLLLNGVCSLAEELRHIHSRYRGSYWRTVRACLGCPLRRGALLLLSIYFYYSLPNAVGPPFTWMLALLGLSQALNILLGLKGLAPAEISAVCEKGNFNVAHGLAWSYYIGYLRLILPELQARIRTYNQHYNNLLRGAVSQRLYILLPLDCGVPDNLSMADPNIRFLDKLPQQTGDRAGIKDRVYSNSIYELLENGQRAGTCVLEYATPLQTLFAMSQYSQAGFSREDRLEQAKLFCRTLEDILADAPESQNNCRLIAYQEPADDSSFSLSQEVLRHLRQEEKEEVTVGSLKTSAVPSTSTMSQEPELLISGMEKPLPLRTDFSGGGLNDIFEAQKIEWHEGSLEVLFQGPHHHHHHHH
# Summary of the method: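 EC50 values come from 4-parameter fits of remaining filter-bound tritium versus log concentration (10-point, 1:3 dilution). Insect-cell membranes carrying full-length WT STING were incubated 60 min at RT with compound and tritiated cGAMP (16 nM working stock) before filtration.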
# [3] = biological target: T2, full-length HAQ STING (Homo sapiens, UniProt Q86WV6, G230A/H232R/R293Q/R71H); experiment: 3H-cGAMP filtration binding assay (HAQ STING); conditions: competition with tritiated cGAMP, HAQ STING membrane
# T2 construct: AviTag (after GG linker) (C); HRV3C cleavage site (after GS linker) (C); HIS8 (C); made in house; host or cells: Trichoplusia ni (Hi-Five) insect cells infected with baculovirus (virus generated and amplified in Sf21 cells); used as a washed membrane preparation
# T2 sequence (Q86WV6 with tags, fused parts or gaps R71H/G230A/H232R/R293Q): as the sequence (Q86WV6 with tags, fused parts or gaps H232R) above, with R71H, G230A, R293Q counted along it
# Summary of the method: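 Hi-Five (T. ni) membranes overexpressing the STING variant (2.2 ug/ml working) preincubated with compound 60 min at RT in PBS, then [3H]cGAMP (8 nM working stock) added for 60 min at RT. Bound radioactivity captured on GF/B filters and counted by scintillation; EC50 from 4-parameter fit of control-normalized activity.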
Structure (SMILES),EC50 [2] [nM],EC50 [3] [nM],inhibition at 20 µM [2] [%],activation at 30 µM [1] [%],activation at 3 µM [1] [%]
"COc1cc2sc(C(=O)C[C@H](C)C(=O)O)cc2cc1OCCCCCCOc1cc2cc(C(=O)C[C@H](C)C(=O)O)sc2cc1OC [Example 110, (2S,2′S)-4,4′-(5,5′-(hexane-1,6-diylbis(oxy))bis(6-methoxybenzo[b]thiophene-5,2-diyl))bis(2-methyl-4-oxobutanoic acid)]",–,18600,15,6,–
"COc1cc2sc(C(=O)C[C@H](C)C(=O)O)cc2cc1OCCCCCCOc1c(OC)cc2sc(C(=O)C[C@H](C)C(=O)O)cc2c1F [Example 111, (S)-4-(5-((6-((2-((S)-3-carboxybutanoyl)-4-fluoro-6-methoxybenzo[b]thiophen-5-yl)oxy)hexyl)oxy)-6-methoxybenzo[b]thiophen-2-yl)-2-methyl-4-oxobutanoic acid]",–,861,50,–,45
"COc1cc2cc(C(=O)C[C@H](C)C(=O)O)sc2cc1OCCCCCCOc1cc2sc(C(=O)C[C@H](C)C(=O)O)cc2cc1OC [Example 112, (2S,2′S)-4,4′-(6,6′-(hexane-1,6-diylbis(oxy))bis(5-methoxybenzo[b]thiophene-6,2-diyl))bis(2-methyl-4-oxobutanoic acid)]",–,15500,11,23,–
"COc1cc2sc(CC[C@H](C)C(=O)O)cc2c(F)c1OCCCOc1c(OC)cc2sc(CC[C@H](C)C(=O)O)cc2c1F [Example 116, (2S,2′S)-4,4′-(5,5′-(propane-1,3-diylbis(oxy))bis(4-fluoro-6-methoxybenzo[b]thiophene-5,2-diyl))bis(2-methylbutanoic acid)]",4240,623,–,8,–
"COc1cc2sc(C(=O)CCC(=O)O)cc2c(F)c1OCCCCCOc1c(OC)cc2sc(C(=O)CCC(=O)O)cc2c1F [Example 117, 4,4′-(5,5′-(pentane-1,5-diylbis(oxy))bis(4-fluoro-6-methoxybenzo[b]thiophene-5,2-diyl))bis(4-oxobutanoic acid)]",2640,340,–,123,–
"COc1cc2sc(C(=O)C[C@H](C)C(=O)O)cc2c(F)c1OCCCCCOc1c(OC)cc2sc(C(=O)[C@@H]3CC[C@H]3C(=O)O)cc2c1F [Example 121, trans-2-(5-((5-((2-((S)-3-carboxybutanoyl)-4-fluoro-6-methoxybenzo[b]thiophen-5-yl)oxy)pentyl)oxy)-4-fluoro-6-methoxybenzo[b]thiophene-2-carbonyl)cyclobutane carboxylic acid]",–,1550,43,26,–
"COc1cc2sc(CC[C@H](C)C(=O)O)cc2c(F)c1OCCCCOc1c(OC)cc2sc(C(=O)C[C@H](C)C(=O)O)cc2c1F [Example 124, (S)-4-(5-(4-((2-((S)-3-carboxybutyl)-4-fluoro-6-methoxybenzo[b]thiophen-5-yl)oxy)butoxy)-4-fluoro-6-methoxybenzo[b]thiophen-2-yl)-2-methyl-4-oxobutanoic acid]",3060,263,–,–,45
"COc1cc2sc(C(=O)CCC(=O)O)cc2cc1CCCOc1cc2sc(C(=O)CCC(=O)O)cc2cc1OC [Example 128, 4-(5-(3-((2-(3-carboxypropanoyl)-5-methoxybenzo[b]thiophen-6-yl)oxy)propyl)-6-methoxybenzo[b]thiophen-2-yl)-4-oxobutanoic acid]",6310,1080,–,83,–
"COc1cc2cc(C(=O)CCC(=O)O)sc2cc1OCCCc1cc2cc(C(=O)CCC(=O)O)sc2cc1C [Example 129, 4-(5-(3-((2-(3-carboxypropanoyl)-5-methoxybenzo[b]thiophen-6-yl)oxy)propyl)-6-methylbenzo[b]thiophen-2-yl)-4-oxobutanoic acid]",17100,3500,–,50,–
"COc1cc2sc(C(=O)C[C@H](C)C(=O)O)cc2c(F)c1OCCCCOc1c(OC)cc2sc(C(=O)C[C@H](C)C(=O)O)cc2c1Cl [Example 130, (S)-4-(5-(4-((2-((S)-3-carboxybutanoyl)-4-chloro-6-methoxybenzo[b]thiophen-5-yl)oxy)butoxy)-4-fluoro-6-methoxybenzo[b]thiophen-2-yl)-2-methyl-4-oxobutanoic acid]",25,3,–,61,–

# Continued, in another order:
EC50 [2] [nM],EC50 [3] [nM],inhibition at 20 µM [2] [%],Structure (SMILES),activation at 30 µM [1] [%],activation at 3 µM [1] [%]
39,10,–,"COc1cc2sc(C(=O)C[C@H](C)C(=O)O)cc2cc1CCCOc1c(OC)cc2sc(C(=O)C[C@@H](C)C(=O)O)cc2c1F [Example 109, (S)-4-(5-(3-((2-((R)-3-carboxybutanoyl)-4-fluoro-6-methoxybenzo[b]thiophen-5-yl)oxy)propyl)-6-methoxybenzo[b]thiophen-2-yl)-2-methyl-4-oxobutanoic acid]",96,–
23,2,–,"COc1cc2sc(C(=O)C[C@H](C)C(=O)O)cc2cc1CCCOc1c(OC)cc2sc(C(=O)[C@@H]3CCC3C(=O)O)cc2c1F (stereo partly drawn) [Example 113, trans-2-(5-(3-(2-((S)-3-carboxybutanoyl)-6-methoxybenzo[b]thiophen-5-yl)propoxy)-4-fluoro-6-methoxybenzo[b]thiophene-2-carbonyl)cyclobutane carboxylic acid]",93,–
264,21,–,"COc1cc2sc(C(=O)C[C@H](C)C(=O)O)cc2c(F)c1CCCOc1c(OC)cc2sc(CCC(C)(C)C(=O)O)cc2c1F [Example 114, (S)-4-(5-(3-((2-(3-carboxy-3-methylbutyl)-4-fluoro-6-methoxybenzo[b]thiophen-5-yl)oxy)propyl)-4-fluoro-6-methoxybenzo[b]thiophen-2-yl)-2-methyl-4-oxobutanoic acid]",57,–
5000,60,–,COc1cc2sc(C(=O)CCC(=O)O)cc2c(F)c1OCCCCCOc1c(OC)cc2sc(C(=O)C[C@H](C)C(=O)O)cc2c1F [Example 118],117,–
698,38,–,"COc1cc2sc(C(=O)C[C@H](C)C(=O)O)cc2c(F)c1OCCCCCOc1c(OC)cc2sc(C(=O)C[C@H](C)C(=O)O)cc2c1F [Example 120, (2S,2′S)-4,4′-(5,5′-(pentane-1,5-diylbis(oxy))bis(4-fluoro-6-methoxybenzo[b]thiophene-5,2-diyl))bis(2-methyl-4-oxobutanoic acid)]",–,45
1,1,–,"COc1cc2sc(C(=O)C[C@H](C)C(=O)O)cc2c(F)c1OCCCOc1c(OC)cc2sc(C(=O)C[C@H](C)C(=O)O)cc2c1Cl [Example 122, (S)-4-(5-(3-((2-((S)-3-carboxybutanoyl)-4-chloro-6-methoxybenzo[b]thiophen-5-yl)oxy)propoxy)-4-fluoro-6-methoxybenzo[b]thiophen-2-yl)-2-methyl-4-oxobutanoic acid]",79,–
2,1,–,"COc1cc2sc(C(=O)C[C@H](C)C(=O)O)cc2c(F)c1OCCCOc1c(OC)cc2sc(C(=O)C[C@H](C)C(=O)O)cc2c1Br [Example 123, (S)-4-(5-(3-((4-bromo-2-((S)-3-carboxybutanoyl)-6-methoxybenzo[b]thiophen-5-yl)oxy)propoxy)-4-fluoro-6-methoxybenzo[b]thiophen-2-yl)-2-methyl-4-oxobutanoic acid]",105,–
5,1,–,"COc1cc2cc(C(=O)CCC(=O)O)sc2cc1OCCCOc1c(OC)cc2sc(C(=O)CCC(=O)O)cc2c1F [Example 125, 4-(6-(3-((2-(3-carboxypropanoyl)-4-fluoro-6-methoxybenzo[b]thiophen-5-yl)oxy)propoxy)-5-methoxybenzo[b]thiophen-2-yl)-4-oxobutanoic acid]",156,–
19,2,–,"COc1cc2sc(C(=O)CCC(=O)O)cc2cc1OCCCOc1cc2sc(C(=O)CCC(=O)O)cc2cc1OC [Example 126, 4-(5-(3-((2-(3-carboxypropanoyl)-5-methoxybenzo[b]thiophen-6-yl)oxy)propoxy)-6-methoxybenzo[b]thiophen-2-yl)-4-oxobutanoic acid]",91,–
270,16,–,"COc1cc2cc(C(=O)CCC(=O)O)sc2cc1OCCCOc1cc2sc(C(=O)CCC(=O)O)cc2cc1OC [Example 127, 4,4′-(6,6′-(propane-1,3-diylbis(oxy))bis(5-methoxybenzo[b]thiophene-6,2-diyl))bis(4-oxobutanoic acid)]",120,–
